Source: ChEMBL document CHEMBL4033766, “Discovery of the Antitumor Effects of a Porphyrazine Diol (Pz 285) in MDA-MB-231 Breast Tumor Xenograft Models in Mice” (ACS Med Chem Lett, 2017)
Activity calls are given as the source filed them. No cut-off for these calls is given here.

Legend:
MDA-MB-231 = test: Antiproliferative activity against human MDA-MB-231 cells at 25 uM after 48 hrs by MTS assay relative to control; assay type: functional
[1] = Antiproliferative activity against human MDA-MB-231-LM24 cells after 48 hrs by MTS assay; assay type: functional, cell-based; details: MDA-MB-231-LM24, 48 h
[2] = Antitumor activity against Her2-positive human MDA-MB-231-LM24 cells xenografted in SCID-beige mouse harboring Td-tomato and Luc2 assessed as survival days at 2.5 mg/kg, iv administered every 7 days for 28 days (reference value: 9.5 days); assay type: functional
[3] = Antitumor activity against Her2-positive human MDA-MB-231-LM24 cells xenografted in SCID-beige mouse harboring Td-tomato and Luc2 assessed as tumor growth inhibition at 2.5 mg/kg, iv administered every 7 days for 28 days relative to control; assay type: functional; details: MDA-MB-231-LM24, iv, read-out: TGI
MDA-MB-231-LM24 = test: Antimetastatic activity against Her2-positive human MDA-MB-231-LM24 cells xenografted in SCID-beige mouse harboring Luc2 assessed as reduction in tumor burden in lung at 2.5 mg/kg, iv administered every 7 days for 2 weeks by bioluminescence analysis; assay type: functional, organism-based
[4] = Antitumor activity against Her2-positive human MDA-MB-231-LM24 cells xenografted in SCID-beige mouse harboring Td-tomato and Luc2 assessed as survival days at 1.25 mg/kg, iv administered every 7 days for 28 days (reference value: 9.5 days); assay type: functional

| SMILES | Activity (MDA-MB-231) | IC50 [1] [µM] | Survival [2] [days] | inhibition in vivo at 2.5 mg/kg [3] [%] | Activity (MDA-MB-231-LM24) | Survival [4] [days] |
| --- | --- | --- | --- | --- | --- | --- |
| CO[C@]1(C)OC2=C(O[C@@]1(C)OC)c1nc2nc2[nH]c(nc3nc(nc4[nH]c(n1)c1c4O[C@@](C)(OC)[C@](C)(OC)O1)-c1c(OCCO)ccc(OCCO)c1-3)c1c2O[C@@](C)(OC)[C@](C)(OC)O1 | 40% | 15 | 22.5 | > 65 | Active | – |
| COc1cccc2c1C(=O)c1c(O)c3c(c(O)c1C2=O)C[C@@](O)(C(=O)CO)C[C@@H]3O[C@H]1C[C@H](N)[C@H](O)[C@H](C)O1 [DOXORUBICIN] | – | – | 14 | – | – | 20 |
| CO[C@]1(C)OC2=C(O[C@@]1(C)OC)c1nc2nc2[nH]c(nc3nc(nc4[nH]c(n1)c1c4O[C@@](C)(OC)[C@](C)(OC)O1)C1=C3O[C@@](C)(OC)[C@](C)(OC)O1)c1c2O[C@@](C)(OC)[C@](C)(OC)O1 | inactive | – | – | – | – | – |
